Test results as given in US20250170107A1, “IMIDAZOPYRIDINE INHIBITORS OF TYROSINE KINASE” (BridGene Biosciences. Inc., priority 2022, published 2025).

Assays:
FLT3 = biological target: T1, FLT3 (Homo sapiens, UniProt P36888); experiment: Caliper mobility shift kinase inhibition assay, recombinant FLT3; assay type: biochemical; conditions: recombinant FLT-3 0.1 nM, ATP 95 μM, incubation 3 hr, room temperature
T1 construct: purchased ThermoFisher PV3182
T1 sequence (P36888 27-993): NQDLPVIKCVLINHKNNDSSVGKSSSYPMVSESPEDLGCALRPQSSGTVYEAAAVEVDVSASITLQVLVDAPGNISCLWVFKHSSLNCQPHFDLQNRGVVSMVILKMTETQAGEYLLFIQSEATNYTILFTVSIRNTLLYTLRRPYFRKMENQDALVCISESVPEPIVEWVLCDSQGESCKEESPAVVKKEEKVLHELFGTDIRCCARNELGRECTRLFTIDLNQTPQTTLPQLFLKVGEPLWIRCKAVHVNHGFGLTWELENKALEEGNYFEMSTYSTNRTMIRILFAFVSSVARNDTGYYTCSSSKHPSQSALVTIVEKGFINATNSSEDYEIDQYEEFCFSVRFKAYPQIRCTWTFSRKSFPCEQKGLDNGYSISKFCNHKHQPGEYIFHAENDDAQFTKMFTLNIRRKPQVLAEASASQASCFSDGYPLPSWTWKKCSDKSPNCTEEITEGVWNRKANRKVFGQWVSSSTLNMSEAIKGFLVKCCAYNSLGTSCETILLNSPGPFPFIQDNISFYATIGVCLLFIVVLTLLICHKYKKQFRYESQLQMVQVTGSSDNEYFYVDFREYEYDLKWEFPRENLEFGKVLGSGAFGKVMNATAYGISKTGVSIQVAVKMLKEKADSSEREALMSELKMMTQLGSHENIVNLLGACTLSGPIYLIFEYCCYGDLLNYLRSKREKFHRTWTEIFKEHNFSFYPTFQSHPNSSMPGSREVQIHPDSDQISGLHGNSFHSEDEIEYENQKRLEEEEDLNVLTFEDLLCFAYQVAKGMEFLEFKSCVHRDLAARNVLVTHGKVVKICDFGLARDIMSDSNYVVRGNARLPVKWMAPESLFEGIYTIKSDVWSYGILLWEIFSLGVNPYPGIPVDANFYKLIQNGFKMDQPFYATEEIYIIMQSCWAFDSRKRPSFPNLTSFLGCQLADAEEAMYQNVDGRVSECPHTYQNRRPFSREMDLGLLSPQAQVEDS
Protocol: Compounds' inhibition of recombinant kinases (FLT3, KIT) was measured using Caliper mobility shift assay, which is based on the difference in capillary electrophoresis mobility of a fluorescent-tagged peptide as a result of a phosphorylation by the kinase under study. Reactions were started by the addition of various concentrations of a compound (originally in DMSO solution) to a kinase solution in assay buffer followed by addition of a mixture of ATP and a fluorescent-tagged peptide substrate in assay buffer. Concentrations of the enzyme, ATP and thepeptide were pre-optimized so that 15% substrate conversion to ensure initial velocity measurements. After incubation for 3 hours at room temperature, the kinase reaction was quenched by the addition of a concentrated EDTA solution before analysis on a LabChip EZ Reader II to yield percentage inhibition by comparing to the DMSO control. Table 2 below summarizes the assay conditions for the characterization of the kinase inhibition properties of the disclosed compounds.

KIT = biological target: T2, KIT (Homo sapiens, UniProt P10721); experiment: Caliper mobility shift kinase inhibition assay, recombinant KIT; assay type: biochemical; conditions: recombinant KIT 0.9 nM, ATP 400 μM, incubation 17 hr (Table 2)
T2 construct: purchased BPS 40250
T2 sequence (P10721 26-976): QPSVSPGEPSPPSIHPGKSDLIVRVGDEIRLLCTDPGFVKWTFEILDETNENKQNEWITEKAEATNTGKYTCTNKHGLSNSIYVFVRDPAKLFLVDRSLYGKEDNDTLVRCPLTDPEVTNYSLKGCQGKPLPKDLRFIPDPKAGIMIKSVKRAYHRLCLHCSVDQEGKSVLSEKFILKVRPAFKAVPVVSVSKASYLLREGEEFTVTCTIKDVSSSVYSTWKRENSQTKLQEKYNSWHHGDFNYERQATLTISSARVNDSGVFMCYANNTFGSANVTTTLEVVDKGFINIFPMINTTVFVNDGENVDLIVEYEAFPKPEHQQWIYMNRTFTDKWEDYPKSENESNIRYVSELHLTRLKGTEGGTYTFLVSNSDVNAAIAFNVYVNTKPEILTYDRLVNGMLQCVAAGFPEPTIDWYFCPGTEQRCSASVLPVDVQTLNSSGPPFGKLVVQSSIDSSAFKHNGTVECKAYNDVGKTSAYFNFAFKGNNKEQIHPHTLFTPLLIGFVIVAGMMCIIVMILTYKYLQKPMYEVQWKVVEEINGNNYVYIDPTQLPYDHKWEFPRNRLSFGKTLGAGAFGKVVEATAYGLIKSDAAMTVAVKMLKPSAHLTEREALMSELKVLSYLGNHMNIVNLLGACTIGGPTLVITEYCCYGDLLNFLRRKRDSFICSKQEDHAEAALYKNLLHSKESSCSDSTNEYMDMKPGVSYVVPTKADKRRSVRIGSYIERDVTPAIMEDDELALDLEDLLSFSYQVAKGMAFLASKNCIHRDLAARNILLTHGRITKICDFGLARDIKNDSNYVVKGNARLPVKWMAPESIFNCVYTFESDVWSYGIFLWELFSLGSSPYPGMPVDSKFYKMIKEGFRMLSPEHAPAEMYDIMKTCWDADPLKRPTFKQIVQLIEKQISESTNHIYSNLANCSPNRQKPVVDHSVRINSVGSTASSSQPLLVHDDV

MV4-11 = experiment: Cell viability assay (CellTiter-Glo), FLT3 cell-based assay; conditions: Homo sapiens, MV4-11 cells, 72 hr at 37° C., 0.1% DMSO
Protocol: Cell viability assay was performed based on the following brief procedures. Cells were plated at the density of 5K/well with volume of 180 μL in 96-well white plate and clear bottom plates. 20 μL of veh. or compound was added at proper concentration to the well. The final volume is 200 μL, with final conc. of DMSO=0.1%, 11 points, triplicates. The cells were then treated at 37° C. in the TC incubator for 72 hr. Equal volume (200 μL) of CellTiter-Glo reagent (Promega) was added to the well and protect from light at room temperature for 15 min. The chemiluminescence was measured with EnSight (Perkin Elmer). GraphPad Prism non-linear regression, Log[inhibitor] response with four parameters were used to calculate GI50.

| SMILES | IC50 (FLT3) | IC50 (KIT) | GI50 (MV4-11) |
| --- | --- | --- | --- |
| C=CC(=O)N1CCOC[C@H]1C(=O)NCCn1cnc2cnc(Nc3ncc(-c4ccncc4)s3)cc21 [Example 1, (3S)-4-prop-2-enoyl-N-[2-[6-[[5-(4-pyridyl)thiazol-2-yl]amino]imidazo[4,5-c]pyridin-1-yl]ethyl]morpholine-3-carboxamide] | < 1 nM | 1 to 10 nM | 10 to 100 nM |
| C/C=C\C(=O)N1CCC[C@H]1C(=O)NCCn1cnc2cnc(Nc3ncc(-c4ccc(F)cc4)s3)cc21 [Example 2, (2S)-1-[(Z)-but-2-enoyl]-N-[2-[6-[[5-(4-fluorophenyl)thiazol-2-yl]amino]imidazo[4,5-c]pyridin-1-yl]ethyl]pyrrolidine-2-carboxamide] | 1 to 10 nM | 1 to 10 nM | < 10 nM |
| CN(C)C/C=C/C(=O)N1CCC[C@H]1C(=O)NCCn1cnc2cnc(Nc3ncc(-c4ccc(F)cc4)s3)cc21 [Example 3, (2S)-1-[(E)-4-(dimethylamino)but-2-enoyl]-N-[2-[6-[[5-(4-fluorophenyl)thiazol-2-yl]amino]imidazo[4,5-c]pyridin-1-yl]ethyl]pyrrolidine-2-carboxamide] | < 1 nM | 1 to 10 nM | 10 to 100 nM |
| C=C(F)C(=O)N1CCC[C@H]1C(=O)NCCn1cnc2cnc(Nc3ncc(-c4ccc(F)cc4)s3)cc21 [Example 4] | 1 to 10 nM | 1 to 10 nM | < 10 nM |
| C=CC(=O)N1CCOC[C@H]1C(=O)NCCn1cnc2cnc(Nc3ncc(-c4ccc(F)cc4)s3)cc21 [Example 6, (3S)-N-[2-[6-[[5-(4-fluorophenyl)thiazol-2-yl]amino]imidazo[4,5-c]pyridin-1-yl]ethyl]-4-prop-2-enoyl-morpholine-3-carboxamide] |  |  | < 10 nM |
| C=CC(=O)N1CC[C@H]1C(=O)NCCn1cnc2cnc(Nc3ncc(-c4ncccc4F)s3)cc21 [Example 7, (2S)-N-[2-[6-[[5-(3-fluoro-2-pyridyl)thiazol-2-yl]amino]imidazo [4,5-c]pyridin-1-yl]ethyl]-1-prop-2-enoyl-azetidine-2-carboxamide] | < 1 nM | < 1 nM |  |
| C=C(F)C(=O)N1CCOC[C@H]1C(=O)NCCn1cnc2cnc(Nc3ncc(-c4ncccc4F)s3)cc21 [Example 16, (3S)-4-(2-fluoroprop-2-enoyl)-N-[2-[6-[[5-(3-fluoro-2-pyridyl)thiazol-2-yl]amino]imidazo[4,5-c]pyridin-1-yl]ethyl]morpholine-3-carboxamide] | 1 to 10 nM | 1 to 10 nM |  |
| CN(C)C/C=C/C(=O)N1CCOC[C@H]1C(=O)NCCn1cnc2cnc(Nc3ncc(-c4ncccc4F)s3)cc21 [Example 17, (3S)-4-[(E)-4-(dimethylamino)but-2-enoyl]-N-[2-[6-[[5-(3-fluoro-2-pyridyl)thiazol-2-yl]amino]imidazo[4,5-c]pyridin-1-yl]ethyl]morpholine-3-carboxamide] | < 1 nM | < 1 nM |  |
| C=CC(=O)N1C[C@H](O)C[C@H]1C(=O)NCCn1cnc2cnc(Nc3ncc(-c4ncccc4F)s3)cc21 [Example 18, (2S,4R)-N-[2-[6-[[5-(3-fluoro-2-pyridyl)thiazol-2-yl]amino]imidazo[4,5-c]pyridin-1-yl]ethyl]-4-hydroxy-1-prop-2-enoyl-pyrrolidine-2-carboxamide] | < 1 nM | 1 to 10 nM |  |
| C=C(F)C(=O)N1C[C@H](O)C[C@H]1C(=O)NCCn1cnc2cnc(Nc3ncc(-c4ncccc4F)s3)cc21 [Example 19, (2S,4R)-1-(2-fluoroprop-2-enoyl)-N-[2-[6-[[5-(3-fluoro-2-pyridyl)thiazol-2-yl]amino]imidazo[4,5-c]pyridin-1-yl]ethyl]-4-hydroxy-pyrrolidine-2-carboxamide] | 1 to 10 nM | 10 to 100 nM |  |
| CN(C)C/C=C/C(=O)N1C[C@H](O)C[C@H]1C(=O)NCCn1cnc2cnc(Nc3ncc(-c4ncccc4F)s3)cc21 [Example 20, (2S,4R)-1-[(E)-4-(dimethylamino)but-2-enoyl]-N-[2-[6-[[5-(3-fluoro-2-pyridyl)thiazol-2-yl]amino]imidazo[4,5-c]pyridin-1-yl]ethyl]-4-hydroxy-pyrrolidine-2-carboxamide] | < 1 nM | < 1 nM |  |
